Experiment in all cases: Post-emergence test, weed control effect
Holding throughout (format): in vivo

Test [1] has as its system Veronica polita. Particulars: after 3 weeks. Summed up:
(§1)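 Seeds are sown in soil pots and raised in the greenhouse until the 2-3 leaf stage. Plants are then sprayed with compound dissolved in acetone with Tween-80, diluted in water and supplemented with 80% vegetable oil methyl ester synergist at 1500 g/ha, and fresh weight inhibition is rated 0-10 three weeks later.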

Test [2] relates to Setaria viridis. The settings on record: 504 h, after 3 weeks, fresh weight inhibition, read-out: activity level of harmful plant destruction (growth inhibition rate), Setaria viridis. Summed up:
as §1

Test [3] deals with Amaranthus retroflexus. The settings on record: after 3 weeks. In short, it runs like this: as §1
Test [4] has as its system Chenopodiaceae. The settings on record: after 3 weeks. Summed up:
as §1

Test [5] concerns Echinochloa crus-galli. Particulars: 504 h, after 3 weeks, fresh weight inhibition, read-out: activity level of harmful plant destruction (growth inhibition rate), Echinochloa crus-galli. In short, it runs like this: as §1
The subject of test [6] is Rorippa indica. Particulars: after 3 weeks. In short, it runs like this:
as §1

For test [7], the system named is Galium aparine. Particulars: 504 h, after 3 weeks, fresh weight inhibition, read-out: activity level of harmful plant destruction (growth inhibition rate), Galium aparine. Summed up: as §1
[8] abbreviates: Veronica polita, 504 h, fresh weight inhibition, read-out: activity level of harmful plant destruction (growth inhibition rate), Veronica polita.
[9] abbreviates: 504 h, fresh weight inhibition, read-out: activity level of harmful plant destruction (growth inhibition rate), Chenopodiaceae.
[10] abbreviates: Rorippa indica, 504 h, fresh weight inhibition, read-out: activity level of harmful plant destruction (growth inhibition rate), Rorippa indica.

On to `Oc1cc(C(F)(F)F)nnc1-c1ccc(F)c(Cl)c1` [Compound 740], for which the “weed control effect (activity level), Veronica polita” value (shortened to “weed control effect … Veronica polita”) in test [1] (Dose 3000 g/ha) amounted to 10. Further, the inhibition at 300 g/ha in test [1] (setting [8]), in test [2], in test [4] (setting [9]), in test [5], in test [6] (setting [10]) and in test [7] was 100% throughout. In addition, in test [3] (Dose 3000 g/ha), the “weed control effect (activity level), Amaranthus retroflexus” value came to 10. Besides, in test [4] (Dose 3000 g/ha), the “weed control effect (activity level), Chenopodiaceae” value (“weed control effect … Chenopodiaceae” for short) was 10. The “weed control effect (activity level), Rorippa indica” value (shortened to “weed control effect … Rorippa indica”) in test [6] (Dose 3000 g/ha) is listed as 10.
Turning to `Oc1cc(C(F)(F)F)nnc1-c1ccc(F)c(F)c1` [Compound 744], the “weed control effect … Veronica polita” value in test [1] (Dose 3000 g/ha) is given as 10. Moreover, the inhibition at 300 g/ha in test [1] (setting [8]), in test [2], in test [4] (setting [9]), in test [5], in test [6] (setting [10]) and in test [7] was 100% each time. The “weed control effect (activity level), Amaranthus retroflexus” value in test [3] (Dose 3000 g/ha) turned out to be 10. Further, the “weed control effect … Chenopodiaceae” value in test [4] (Dose 3000 g/ha) stood at 10. For the same compound, in test [6] (Dose 3000 g/ha), the “weed control effect … Rorippa indica” value was found to be 10.
In the case of `Cc1cc(-c2nnc(C(F)(F)F)cc2O)n(C)n1` [Compound 779], in test [1] (Dose 3000 g/ha), the “weed control effect … Veronica polita” value is 10. For the same compound, the inhibition at 300 g/ha in test [1] (setting [8]), in test [2], in test [4] (setting [9]), in test [5], in test [6] (setting [10]) and in test [7] was 100% throughout. In addition, the “weed control effect (activity level), Amaranthus retroflexus” value in test [3] (Dose 3000 g/ha) is 10. In test [4] (Dose 3000 g/ha), the “weed control effect … Chenopodiaceae” value was 10. In addition, in test [6] (Dose 3000 g/ha), the “weed control effect … Rorippa indica” value came out at 10.
Take `Oc1cc(C(F)(F)F)nnc1-c1cnn(C(F)F)c1` [Compound 844]: the inhibition at 150 g/ha in test [1] (Veronica polita, 504 h, Dose 150 g/ha, fresh weight inhibition, read-out: activity level of harmful plant destruction (growth inhibition rate), Veronica polita) was 100%; in test [2] (Dose 150 g/ha) it was 100%; in test [4] (504 h, Dose 150 g/ha, fresh weight inhibition, read-out: activity level of harmful plant destruction (growth inhibition rate), Chenopodiaceae), 100%; in test [5] (Dose 150 g/ha), 100%; in test [6] (Rorippa indica, 504 h, Dose 150 g/ha, fresh weight inhibition, read-out: activity level of harmful plant destruction (growth inhibition rate), Rorippa indica) it was 100%; in test [7] (Dose 150 g/ha), 100%. In addition, in test [1] (dose 2000 g/ha), the “weed control effect … Veronica polita” value amounted to 10. For the same compound, in test [3] (dose 2000 g/ha), the “weed control effect (activity level), Amaranthus retroflexus” value is given as 10. In test [4] (dose 2000 g/ha), the “weed control effect … Chenopodiaceae” value was 10. Also, in test [6] (dose 2000 g/ha), the “weed control effect … Rorippa indica” value is recorded as 10.
`Oc1cc(C(F)(F)F)nnc1-c1cnc(F)c(Cl)c1` [Compound 1000]: the “weed control effect … Veronica polita” value in test [1] (Dose 3000 g/ha) amounted to 10. For the same compound, the inhibition at 300 g/ha in test [1] (setting [8]), in test [2], in test [4] (setting [9]), in test [5], in test [6] (setting [10]) and in test [7] was 100% each time. For the same compound, the “weed control effect (activity level), Amaranthus retroflexus” value in test [3] (Dose 3000 g/ha) was 10. Moreover, the “weed control effect … Chenopodiaceae” value in test [4] (Dose 3000 g/ha) is reported as 10. In addition, in test [6] (Dose 3000 g/ha), the “weed control effect … Rorippa indica” value is listed as 10.

Usually inhibition stands for the relative decrease from the control value, in per cent.

The values above are taken from patent US12568972B2, “Pyridazinol compounds and derivatives, preparation methods, herbicidal compositions and applications thereof” (Qingdao Kingagroot Chemical Compound Co., Ltd., priority 2018, dated 2026).
